Measured values taken from PubChem BioAssay AID651551 (Sanford-Burnham Center for Chemical Genomics, 2012).
Active and inactive are the calls of the source.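 Rule for the calls: active = compounds blocking the Peg3 reporter with IC50 up to 10 µM at 6 or 24 hours, yet inert on a control reporter; inactive = the rest.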

Experiments:
[1] = molecular target: PEG-3 (UniProt Q6IN02); assay: GAPDH versus PEG-3 reporter suppression – cell-based, luminescence, counter-screen for PEG-3 promoter inhibitor project, SAR follow-up (AID 651551); details: HeLa PEG-Prom / GAPDH luciferase reporter, 6 or 24 h, mean of runs
[2] = as above; details: HeLa PEG-Prom / GAPDH luciferase reporter, 6 or 24 h, GAPDH, mean of runs

Row | SMILES | IC50 ([1]; 6 h) | IC50 ([1]; 24 h) | IC50 ([2]; 6 h) | IC50 ([2]; 24 h)
1 | Cc1nc(NC(=O)c2ccccc2)sc1-c1csc(Nc2cccc(Cl)c2C)n1 | > 99 µM (inactive) | > 99 µM (inactive) | > 99 µM (inactive) | inactive
2 | Cc1nc(NC(=O)c2ccccc2)sc1-c1csc(Nc2ccccc2Cl)n1 | > 99 µM (inactive) | > 99 µM (inactive) | > 99 µM (inactive) | 7.52 µM
3 | CCCn1nc(C(=O)Nc2nc(-c3ccccn3)cs2)c2ccccc2c1=O | 8.66 µM | inactive | inactive | 7.06 µM
4 | COCCCNC(=O)c1ccc(Cn2c(=O)c3ccccc3n(Cc3ccccc3C#N)c2=O)cc1 | > 99 µM (inactive) | 6.52 µM | > 99 µM (inactive) | 4.68 µM
5 | Cc1cc(NC(=O)c2ccccc2C(F)(F)F)n(-c2nc3ccccc3[nH]2)n1 | inactive | inactive | inactive | 8.73 µM
6 | Cc1cc(NC(=O)c2ccccc2C)n(-c2nc3ccccc3[nH]2)n1 | inactive | inactive | > 99 µM (inactive) | inactive
7 | COc1ccc(Cl)cc1Nc1nc(-c2sc(NC(=O)c3ccccc3)nc2C)cs1 | inactive | inactive | > 99 µM (inactive) | 9.9 µM
8 | O=C(Nc1nc2ccccc2s1)c1nn(-c2ccccc2)c(=O)c2ccccc12 | > 99 µM (inactive) | > 99 µM (inactive) | > 99 µM (inactive) | inactive
9 | CCn1cc(C(=O)NCc2ccco2)c(=O)c2cc(S(=O)(=O)N3CCCC3)ccc21 | > 99 µM (inactive) | > 99 µM (inactive) | > 99 µM (inactive) | inactive
10 | Cc1ccc(Cl)cc1Nc1nc(-c2sc(NC(=O)c3ccco3)nc2C)cs1 | inactive | inactive | inactive | 7.63 µM
11 | CCCn1nc(C(=O)Nc2nc3ccccc3s2)c2ccccc2c1=O | > 99 µM (inactive) | > 99 µM (inactive) | > 99 µM (inactive) | inactive
12 | Cc1cc(NC(=O)c2ccccc2)n(-c2nc3ccccc3[nH]2)n1 | inactive | inactive | > 99 µM (inactive) | > 99 µM (inactive)
13 | Cc1cc(NC(=O)c2cccc(C)c2C)n(-c2nc3ccccc3[nH]2)n1 | inactive | > 99 µM (inactive) | > 99 µM (inactive) | inactive
14 | CCn1nc(C(=O)Nc2nc(-c3ccccn3)cs2)c2ccccc2c1=O | inactive | 6.13 µM | inactive | 3.96 µM
15 | CCCn1nc(C(=O)Nc2nc(-c3ccncc3)cs2)c2ccccc2c1=O | inactive | inactive | inactive | 5.32 µM
16 | Cc1cc(NC(=O)c2ccccc2)n(-c2nc3ccccc3n2C)n1 | inactive | > 99 µM (inactive) | > 99 µM (inactive) | > 99 µM (inactive)
17 | O=C(Nc1nccs1)c1nn(-c2ccccc2)c(=O)c2ccccc12 | > 99 µM (inactive) | > 99 µM (inactive) | inactive | 8.39 µM
18 | COc1ccccc1Nc1nc(-c2sc(NC(=O)c3ccco3)nc2C)cs1 | > 99 µM (inactive) | > 99 µM (inactive) | inactive | 4.17 µM
19 | COc1ccc(-n2nc(C(=O)NCC(=O)Nc3cc(OC)c(OC)c(OC)c3)c3ccccc3c2=O)cc1OC | > 99 µM (inactive) | > 99 µM (inactive) | > 99 µM (inactive) | 6.31 µM
20 | COc1ccc(-n2nc(C(=O)NCC(=O)Nc3cccc(OC)c3)c3ccccc3c2=O)cc1 | > 99 µM (inactive) | > 99 µM (inactive) | > 99 µM (inactive) | inactive
21 | COc1ccc(-n2nc(C(=O)NCC(=O)Nc3ccc(OC)c(OC)c3)c3ccccc3c2=O)cc1 | > 99 µM (inactive) | > 99 µM (inactive) | inactive | inactive
22 | Cc1nc(NC(=O)c2ccccc2)sc1-c1csc(Nc2ccccc2)n1 | > 99 µM (inactive) | inactive | inactive | inactive
23 | O=C(Nc1nc(-c2ccccc2)cs1)c1nn(-c2ccccc2)c(=O)c2ccccc12 | > 99 µM (inactive) | > 99 µM (inactive) | > 99 µM (inactive) | > 99 µM (inactive)
